Several values for one entry are separate records, joined by “and”; a condition that tells them apart may be missing. Equal entries are not always repeated.
Experiments:
[1] = tested on: CD34+ cells from human umbilical cord blood; experiment: Culture of cord blood CD34+ cells towards the megakaryocytic lineage (StemSpan ACF + BS1), flow cytometry; type: cell-based; details: for Percentage of cells bearing CD34+ / Percentage of cells bearing CD34+/CD41+ / Percentage of cells bearing CD34+/CD41− / Percentage of cells bearing CD41+ / Percentage of cells bearing CD41+/CD42+ / Percentage of cells bearing CD42+ / Percentage of cells bearing CD45RA+ / Percentage of cells bearing CD235+: ACF + BS1
Experimental: CD34+ cells were isolated from human umbilical cord blood by positive selection according to standard procedures. Purified CD34+ cells from either single units or pooled from several units of cord blood were seeded in 1 mL of the appropriate culture medium in 24-well plates at a density of approximately 10^5 cells/mL. Cells were maintained at a density of 10^5-10^6 cells/mL throughout the culture by dilution and/or medium replacement.
For culture and differentiation towards the megakaryocytic lineage, purified CD34+ cells were cultured in StemSpan™ ACF medium ([…]™ Technologies, Vancouver, BC, Canada) supplemented with antibiotics and the “BS1” cytokine cocktail described previously (Cortin et al, 2005), and cell counts were performed on days 6, 10, and 14.
Cell counts and viability were measured using the NucleoCounter NC-250™ Viability and Cell Count Assay system (ChemoMetec Inc., Davis, Calif.), according to the manufacturer's instructions.
Cell phenotypes were determined by flow cytometry on the indicated days using the following panel of labeled primary antibodies: CD34-FITC, CD45RA-APC, CD41a-APC, CD42b-PE, and CD235-PE.
CD34+ cells were isolated and cultured for differentiation towards the megakaryocytic lineage as generally described in Example 1.2. […] Flow cytometry was used to monitor the expansion of CD34+/CD41+ MKP cells over time, as described in Example 1.3.
More thorough cell phenotypic profiles of the CD34+ cells isolated and cultured in Example 2 were determined on days 6, 10 and 14 by flow cytometry as described in Example 1.3.

cord blood CD34+ cells = experiment: Expansion of CD34+/CD41+ megakaryocytic progenitors from cord blood CD34+ cells; type: cell-based, human; details: 39° C. + PIC 35 nM; 14 days; ACF + OMPC; FIG. 4
Experimental: Human cord blood (CB) was collected after obtaining written informed consent from donors, following our institutional Research Ethics Committee guidelines. Mononuclear cells (MNCs) were first separated over a Ficoll-Hypaque™ density gradient (GE Healthcare), then cryopreserved at −180° C. in Cryostor CS10™ medium ([…] Technologies). Thawed MNCs from six to eight CB were pooled before CD34 isolation. CB CD34+ cells were enriched by positive selection using the EasySep™ CD34 enrichment kit, according to the manufacturer's instructions ([…] Technologies). […]
Cellular counts and viability were determined by adding Solution 18 (Acridine Orange and DAPI solution, ChemomMetec) and using NucleoCounter™ NC-250 for detection (ChemomMetec).
For cells expanded in conditions favoring differentiation towards the MK lineage, surface markers were detected using the following antibodies: CD34-FITC, CD41a-APC and CD42b-PE. […] All samples were analyzed on an Accuri™ C6 flow cytometer (BD Biosciences), and raw data were analyzed with FCS Express 5 Flow Research Edition software from at least 15 000 viable cell events acquired for each sample. […]
Cellular counts and viability were determined as described in Example 6.5. […]

[2] = tested on: aryl hydrocarbon receptor (AhR) pathway; details: Fares et al., 2014; cited from earlier work

## Cl.Cn1nnc(-c2ccc3c(c2)[nH]c2nc(Cc4ccccc4)nc(N[C@H]4CC[C@H](N)CC4)c23)n1 [PIC, (1r,4r)-N1-(2-benzyl-7-(2-methyl-2H-tetrazol-5-yl)-9H-pyrimido[4,5-b]indol-4-yl)cyclohexane-1,4-diamine hydrochloride]
[1]; 39° C. + PIC 35 nM, data not shown
  purity of CD34+/CD41+ cells: above 40%
[1]; Day 6, 37° C. + PIC 35 nM
  Percentage of cells bearing CD34+: 98.38%
  Percentage of cells bearing CD34+/CD41+: 29.54%
  Percentage of cells bearing CD34+/CD41−: 68.55%
  Percentage of cells bearing CD41+: 29.27%
  Percentage of cells bearing CD41+/CD42+: 1.71%
  Percentage of cells bearing CD42+: 2.48%
  Percentage of cells bearing CD45RA+: 71.55%
  Percentage of cells bearing CD235+: 11.67%
[1]; Day 6, 39° C. + PIC 35 nM
  Percentage of cells bearing CD34+: 97.19%
  Percentage of cells bearing CD34+/CD41+: 48.85%
  Percentage of cells bearing CD34+/CD41−: 48.02%
  Percentage of cells bearing CD41+: 49.84%
  Percentage of cells bearing CD41+/CD42+: 7.95%
  Percentage of cells bearing CD42+: 8.31%
  Percentage of cells bearing CD45RA+: 58.97%
  Percentage of cells bearing CD235+: 19.51%
[1]; Day 10, 37° C. + PIC 35 nM
  Percentage of cells bearing CD34+: 84.39%
  Percentage of cells bearing CD34+/CD41+: 20.21%
  Percentage of cells bearing CD34+/CD41−: 64.40%
  Percentage of cells bearing CD41+: 24.84%
  Percentage of cells bearing CD41+/CD42+: 1.30%
  Percentage of cells bearing CD42+: 2.55%
  Percentage of cells bearing CD45RA+: 76.43%
  Percentage of cells bearing CD235+: 7.45%
[1]; Day 10, 39° C. + PIC 35 nM
  Percentage of cells bearing CD34+: 87.29%
  Percentage of cells bearing CD34+/CD41+: 67.10%
  Percentage of cells bearing CD34+/CD41−: 21.37%
  Percentage of cells bearing CD41+: 73.31%
  Percentage of cells bearing CD41+/CD42+: 17.09%
  Percentage of cells bearing CD42+: 17.30%
  Percentage of cells bearing CD45RA+: 46.94%
  Percentage of cells bearing CD235+: 14.40%
[1]; Day 14, 37° C. + PIC 35 nM
  Percentage of cells bearing CD34+: 69.53%
  Percentage of cells bearing CD34+/CD41+: 11% and 11.01%
  Percentage of cells bearing CD34+/CD41−: 54.97%
  Percentage of cells bearing CD41+: 23.65%
  Percentage of cells bearing CD42+: 3.02%
  Percentage of cells bearing CD45RA+: 61.90%
  Percentage of cells bearing CD235+: 2.90%
[1]; Day 14, 39° C. + PIC 35 nM
  Percentage of cells bearing CD34+: 88.56%
  Percentage of cells bearing CD34+/CD41+: 76.5% and 76.46%
  Percentage of cells bearing CD34+/CD41−: 10.25%
  Percentage of cells bearing CD41+: 87.90%
  Percentage of cells bearing CD42+: 27.09%
  Percentage of cells bearing CD45RA+: 27.09%
  Percentage of cells bearing CD235+: 12.61%
[1]; Day 14, 39° C. + PIC 35 nM, hydrochloride
  Percentage of cells bearing CD41+/CD42+: 27% and 27.04%
Cord blood CD34+ cells
  combined use of mild hyperthermia and PIC on expansion of CD34+/CD41+ cells: synergistic effect
[2]
  suppression of the aryl hydrocarbon receptor (AhR) pathway: without acting as suppressors

Source: patent publication US11666600B2, “Methods for culturing and/or differentiating hematopoietic stem cells into progenitors and uses thereof” (HEMA-QUEBEC, priority 2015, dated 2023)
